Test results as given in patent publication US12630643B2, “CD40 binding protein, bispecific conjugate thereof and method of treating cancer” (priority 2020, dated 2026).

T1: canine (dog) CD40 (Canis lupus familiaris, UniProt Q7YRL5)
T1 sequence (Q7YRL5 21-274): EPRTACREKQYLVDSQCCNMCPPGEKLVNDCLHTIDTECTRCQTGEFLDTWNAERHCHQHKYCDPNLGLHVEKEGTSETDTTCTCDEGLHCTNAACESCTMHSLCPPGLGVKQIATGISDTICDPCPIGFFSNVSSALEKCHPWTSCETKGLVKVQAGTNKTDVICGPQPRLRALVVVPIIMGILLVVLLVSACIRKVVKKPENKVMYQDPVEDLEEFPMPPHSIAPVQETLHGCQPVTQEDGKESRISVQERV

T2: Canine CD40-Fc (Canis lupus familiaris, UniProt Q7YRL5)
T2 construct: purchased Sino Biological 70105-D02H
T2 sequence (Q7YRL5 21-193 limits assumed): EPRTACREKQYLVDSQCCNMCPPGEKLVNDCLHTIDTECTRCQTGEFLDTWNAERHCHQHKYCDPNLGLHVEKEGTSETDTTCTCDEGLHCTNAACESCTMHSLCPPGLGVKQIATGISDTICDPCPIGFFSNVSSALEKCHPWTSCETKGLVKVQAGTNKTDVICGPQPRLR

B1: X-SM083-ab-2: agonistic anti-CD40 antibody 1150/1151 (WO 2015/091853) as hIgG2 (antibody)
heavy: EVQLLESGGGLVQPGGSLRLSCAASGFTFSSYAMSWVRQAPGKGLEWVSGIGGSSSYTSYADSVKGRFTISRDNSKNTLYLQMNSLRAEDTAVYYCARYYSYHMDYWGQGTLVTVSSASTKGPSVFPLAPCSRSTSESTAALGCLVKDYFPEPVTVSWNSGALTSGVHTFPAVLQSSGLYSLSSVVTVPSSNFGTQTYTCNVDHKPSNTKVDKTVERKCCVECPPCPAPPVAGPSVFLFPPKPKDTLMISRTPEVTCVVVDVSHEDPEVQFNWYVDGVEVHNAKTKPREEQFNSTFRVVSVLTVVHQDWLNGKEYKCKVSNKGLPAPIEKTISKTKGQPREPQVYTLPPSREEMTKNQVSLTCLVKGFYPSDISVEWESNGQPENNYKTTPPMLDSDGSFFLYSKLTVDKSRWQQGNVFSCSVMHEALHNHYTQKSLSLSPGK
light: DIQMTQSPSSLSASVGDHVTITCRASQSISSYLNWYQQKPGKAPKLLIYAASSLQSGVPSRFSGSGSGTDFTLTISSLQPEDFATYYCQQYGSAPPTFGQGTKLEIK
modifications: left off: a dimerising Fc or GST
notes: agonistic anti-CD40 antibody 1150/1151 (WO 2015/091853) as hIgG2

Tests used:
14GIIICII scFv = format: binding, mouse
IBIIICI scFv = format: binding, mouse
Human CD40-Fc [1] = target: T3, Human CD40-Fc (Homo sapiens, UniProt P25942); test: SPR single cycle kinetics of Example 5, human CD40-Fc; set-up: purchased Sino Biological 10774-H38H; settings: 1:1 Binding
Target sequence in this assay (P25942 21-193 limits assumed): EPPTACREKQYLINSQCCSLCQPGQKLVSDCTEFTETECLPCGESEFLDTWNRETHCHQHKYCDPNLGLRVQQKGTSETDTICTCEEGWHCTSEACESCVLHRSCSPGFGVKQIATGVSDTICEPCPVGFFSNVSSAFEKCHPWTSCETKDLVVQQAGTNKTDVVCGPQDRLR

canine (dog) CD40 = target: T1, canine (dog) CD40; settings: stated in US2006-0093600; cited from earlier work
Canine CD40-Fc = target: T2, Canine CD40-Fc; test: SPR single cycle kinetics of Example 5, canine CD40-Fc; format: binding
CD40 on CD19+ cells = CD40 on CD19+ cells (Homo sapiens, UniProt P25942); test: Competitive binding with anti-CD40-FITC antibody 5C3, flow cytometry; settings: 25 nM-50 nM antibody, 30 min on ice
Cynomolgus CD40-Fc = test: SPR kinetic measurements (single cycle kinetics) on captured IgG2, cCD40-Fc; settings: for ka / kd: Cynomolgus CD40-Fc (dimer, avidity effects may contribute)
Human CD40-avi = Human CD40-avi (Homo sapiens, UniProt P25942); test: SPR kinetic measurements (single cycle kinetics) on captured IgG2, hCD40-avi; settings: 1:1 Langmuir binding model
[2] = target: CD40 ligand interaction with CD40 (Homo sapiens, UniProt P25942); settings: Yu et al. 2018; WO 2015/091853; cited from earlier work
Human CD40-Fc [3] = target: T3, Human CD40-Fc; test: SPR kinetic measurements (single cycle kinetics) on captured IgG2, hCD40-Fc; settings: for ka / kd: Human CD40-Fc (dimer, avidity effects may contribute)
Target sequence in this assay (P25942 21-193): as the sequence (P25942 21-193 limits assumed) above

[4] = system: human monocyte-derived dendritic cells; test: Internalisation of antibody into dendritic cells; settings: 125 nM antibody
[5] = system: human monocyte-derived DC (MoDC); test: MoDC activation, flow cytometry of surface activation markers (t-SNE); settings: 125 nM antibody, 48 hours of stimulation

Sequence of Human CD40-avi (P25942 21-193): as the sequence (P25942 21-193 limits assumed) above
Sequence of CD40 ligand interaction with CD40 (P25942 21-277): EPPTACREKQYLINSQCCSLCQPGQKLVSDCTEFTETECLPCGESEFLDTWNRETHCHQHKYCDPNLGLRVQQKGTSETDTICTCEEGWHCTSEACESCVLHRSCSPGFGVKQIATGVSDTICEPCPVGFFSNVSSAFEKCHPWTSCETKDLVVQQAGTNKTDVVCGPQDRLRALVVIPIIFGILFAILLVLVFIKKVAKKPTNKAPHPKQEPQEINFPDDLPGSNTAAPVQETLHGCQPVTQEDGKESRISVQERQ
Sequence of CD40 on CD19+ cells (P25942 21-277): as above

| Molecule | Kd (14GIIICII scFv) | ka (14GIIICII scFv) | kd (14GIIICII scFv) | Kd (IBIIICI scFv) | ka (IBIIICI scFv) | kd (IBIIICI scFv) | further results |
| --- | --- | --- | --- | --- | --- | --- | --- |
| FIGITELKKLES [UU74] | 1.7 nM | 570000 M⁻¹ s⁻¹ | 0.00095 s⁻¹ | 0.12 nM | 280000 M⁻¹ s⁻¹ | 3.3e-05 s⁻¹ |  |
| FIGITELKKLESK [UU73] | 0.87 nM | 510000 M⁻¹ s⁻¹ | 0.00044 s⁻¹ | 0.34 nM | 200000 M⁻¹ s⁻¹ | 6.7e-05 s⁻¹ |  |
| FIGITELKKLESKI [UU72] | 0.6 nM | 570000 M⁻¹ s⁻¹ | 0.00034 s⁻¹ |  | 250000 M⁻¹ s⁻¹ |  | kd (1/s) (IBIIICI scFv): * (key: *: too low for, or very close to the detection limit of, instrument specification (<10^−5)) |
| FIGITELKKLESKIN [UU71] | 0.6 nM | 540000 M⁻¹ s⁻¹ | 0.00032 s⁻¹ |  | 230000 M⁻¹ s⁻¹ |  | kd (1/s) (IBIIICI scFv): * (key: *: too low for, or very close to the detection limit of, instrument specification (<10^−5)) |
| FIGITELKKLESKINK [UU70] | 0.29 nM | 650000 M⁻¹ s⁻¹ | 0.00019 s⁻¹ | 0.16 nM | 230000 M⁻¹ s⁻¹ | 3.7e-05 s⁻¹ |  |
| FIGITELKKLESKINKVF (SEQ ID NO: 25), C-term K-biotin; full length MTTE [UU24] | 0.3 nM | 660000 M⁻¹ s⁻¹ | 0.0002 s⁻¹ | 0.12 nM | 190000 M⁻¹ s⁻¹ | 2.3e-05 s⁻¹ |  |
| X-SM083-ab-5: agonistic anti-CD40 antibody CP-870,893 (US 2017/0342159) as hIgG2 |  |  |  |  |  |  | kd (Human CD40-Fc [1]): 3.6e-05 s⁻¹; Kd (Human CD40-Fc [1]; read-out: ^appKD): 0.2 nM; Ka (Human CD40-Fc [1]; optimised follow-up experiment): 190000 M⁻¹ s⁻¹; binding to canine (dog) CD40 (canine (dog) CD40): does not bind to canine (dog) CD40; Ka (Canine CD40-Fc; Canine CD40-Fc, 1:1 Binding): 170000 M⁻¹ s⁻¹; kd (Canine CD40-Fc; Canine CD40-Fc, 1:1 Binding): 0.00041 s⁻¹; affinity for canine CD40 lower than for the human orthologue (Canine CD40-Fc; canine vs human CD40-Fc): approximately 10 times; binding to canine CD40 (Canine CD40-Fc; in words): exhibited binding to canine CD40; 5C3-FITC staining after pre-incubation with antibody (CD40 on CD19+ cells): loss of the FITC signal; ka (Cynomolgus CD40-Fc): 91000 M⁻¹ s⁻¹; kd (Cynomolgus CD40-Fc): 2.5e-05 s⁻¹; Kd (Human CD40-avi): 18 nM; ka (Human CD40-avi): 62000 M⁻¹ s⁻¹; kd (Human CD40-avi): 0.0011 s⁻¹; competition with / blocking of CD40 ligand [2]: without blocking CD40 ligand interaction; ka (Human CD40-Fc [3]): 66000 M⁻¹ s⁻¹; kd (Human CD40-Fc [3]): 3.2e-05 s⁻¹ |
| B1 |  |  |  |  |  |  | internalisation ([4]; after 60 min at 37° C.): 50%; antibodies remained extracellular ([4]; after 4 h incubation): Approximately 30%; ka (Cynomolgus CD40-Fc): 490000 M⁻¹ s⁻¹; kd (Cynomolgus CD40-Fc): 0.0018 s⁻¹; Kd (Cynomolgus CD40-Fc; read-out: ^appKD, Cynomolgus CD40-Fc, apparent affinity, 1:1 Langmuir model): 3.8 nM; Kd (Human CD40-avi): 180 nM; ka (Human CD40-avi): 750000 M⁻¹ s⁻¹; kd (Human CD40-avi): 0.14 s⁻¹; competition with / blocking of CD40 ligand [2]: No competition between this antibody and CD40 ligand was observed; ka (Human CD40-Fc [3]): 320000 M⁻¹ s⁻¹; kd (Human CD40-Fc [3]): 0.0014 s⁻¹; Kd (Human CD40-Fc [3]; read-out: ^appKD, Human CD40-Fc, apparent affinity, 1:1 Langmuir model): 4.6 nM; agonistic profile, t-SNE cluster of surface expression of CD14, CD1a, CD40, HLA-DR, CD86 and CD83 [5]: potent agonistic profile |
